Patent publication US12492195B2, “Preparation method for and crystal form of 3-aryloxy-3-five-membered heteroaryl-propylamine compound” (Zhangzhou Pien Tze Huang Pharmaceutical Co., Ltd., priority 2020, dated 2025)

Experiments:
[1] = test system: ICR mice; test: acetic acid writhing pain model in mice; type: in vivo; details: for frequency of writhing response within 30 min: acetic acid 1 h after administration
Description: Male ICR mice, weighed 22-25 g, were fasted but allowed to drink water freely for 2 h before administration. All ICR mice were weighed and grouped randomly, and the number of animals in each group was greater than 10. […] […] The drug was administrated intragastrically based on the weight of mice. 1.5% acetic acid solution (0.1 ml/10 g) was injected intraperitoneally 1 hour after administration, and the frequency of visceral pain in each group of mice within 30 min was observed. When concave abdomen, stretched trunk and hind paw, and high buttocks appeared, one number point was recorded. Finally, the number of appearance of the above phenomenon was counted within 30 minutes.

[2] = test system: HepG2 cell; test: Cytotoxicity test (CCK-8), hepatotoxicity; type: cell-based; details: Homo sapiens, HepG2, 72 h
Description: (§1) HepG-2 and SH-SY5Y cells were prepared and placed in a 10 cm dish and cultured in a cell incubator in 5% CO2 at 37° C. Trypsin was used to digest and cells were re-suspended and counted. The cells were transferred to 96-well plate with 8000 cells in a well (100 μl/well). The plate was cultured in a cell incubator for 24 h in 5% CO2 at 37° C. A serial of gradient concentration dilutions of compound with 2-fold dilution were prepared, and the system was 100 μL/well. The supernatant of cell culture system on the first day in the 96-well plate was removed, and fresh-prepared drug concentration system was added into culture plate wells containing cultured cells (duplicate wells were set). The cells were cultured in a cell incubator in 5% CO2 at 37° C. for 72 h. After the cell culture was completed, the supernatant of cell culture system was removed from 96-well plate, 100 μl of detection solution containing 10% CCK-8 medium was added into each well, and the cells were cultured in a cell incubator in 5% CO2 at 37° C. for 1 h and then taken out after time was up. Microplate reader was used to measure the absorbance at 450 nm. Data was processed to calculate cytotoxicity, and IC50 was calculated by GraphPad Prism. The cytotoxicity calculation formula was as follows: Cytotoxicity (%)=[A(0 Dosing)−A(Dosing)]/[A(0 Dosing)-A (Control)]×100 • A (Dosing): the absorbance of wells containing cells, CCK-8 solution and drug solution. • A (Control): the absorbance of wells containing medium and CCK-8 solution and without cells. • A (0 Dosing): the absorbance of wells containing cells and CCK-8 solution and without drug solution. Experimental Result

[3] = test system: mice; test: ICS model in mice (fibromyalgia), mechanical hyperalgesia test; type: in vivo; details: 10 mg/kg oral
Description: Male C57BUJ6 mice weighing 18-22 g at the beginning of experiment were selected. Each cage had 4 mice which were allowed to feed and drink water freely. Each experimental group had 12 mice, and the experimental mice were labeled by tail labeling method.
Day 0: At 4:30 pm, the mice were put in a plexiglass box with stainless steel mesh, and then the plexiglass box was put into a cold storage (4±2° C.) overnight. The mice were allowed to feed freely and agar was used to replace water.
Day 1: At 10:00 am, the mice were delivered to room temperature (24±2° C.) environment for 30 min, and then the mice were delivered to the cold storage for 30 min. The above steps were repeated until 4:30 pm, and the mice were put into the cold storage overnight.
The compounds were administered orally according to the schedule of experiment, and the dosage was 10 mg/kg.
On the fourth day after modeling, the pre-administration mechanical hyperalgesia test was performed on the animals. Animals with PWT value greater than 0.5 g were excluded and were not used for experiments. On the fifth day after modeling, the animals were tested for mechanical hyperalgesia test at 0.5 h, 1 h, and 2 h after the administration of compounds.
The mice were individually placed in a plexiglass box with a grid on the bottom of the box to ensure that the mice paw could be tested. The mice were allowed to adapt for 15 min before the test. After the adaptation was completed, the test fiber was used to test at the center of the left hind paw of mice. The test fiber comprised 8 test strengths: 2.36(0.02 g), 2.44(0.04 g), 2.83(0.07 g), 3.22(0.16 g), 3.61(0.4 g), 3.84(0.6 g), 4.08(1 g), and 4.17(1.4 g). During the test, the test fiber was pressed vertically against the skin and forced to bend for 6-8 s with a 5 s interval between each test. During the test, rapid withdrawal of animal paw was recorded as pain response. When the test fiber was removed from animal skin, the withdrawal of animal paw was also recorded as pain response. If animal moved or walked, the pain response was not recorded, and the test was repeated. In the test. 3.22(0.16 g) was used firstly. […] The maximum strength of tested fiber was 4.17(1.4 g).
Mechanical hyperalgesia was calculated by using the following formula: 50% response threshold (g)=(10^(Xf+k))/10,000; • Xf=the final test fiber value used in the test; • k=table value (Chaplan et al., 1994, page 62); • =mean difference 5. Data Collection and Analysis

[4] = test system: SH-SY5Y; test: Cytotoxicity test (CCK-8), neurotoxicity; type: cell-based; details: Homo sapiens, 72 h
Description: as §1

[5] = test system: C57BL/6 mice; test: formalin pain model in mice; type: in vivo; details: for paw licking time: Phase II, 10-60 min; for analgesic effect (EDso) in phase II pain: intraperitoneal
Description: Before the start of experiment, the mice were allowed to adapt to the experimental environment for 72 h with free feeding and drinking water. The test drug was administrated by intraperitoneal injection at a dose of 20 mg/kg, and then the mice were placed in a transparent, ventilated plexiglass cylinder for 1 h, and then 20 μl of 4% formalin solution was injected into the left hind plantar of mice of each group by microinjector. The paw pain response of mice was real-time recorded by miniature camera. The frequency of lifting (1 score/time), shaking (2 score/time), and licking (3 score/time) the left paw and the time length of licking left paw were used as indicators of pain response, the cumulative scoring and licking time in two stages of 0-10 min (phase I, acute pain phase) and 10-60 min (phase II, inflammatory pain phase) were observed and recorded, and the statistical analysis was conducted.
100 male C57BL/6 mice (9-week aged) were randomly divided into 10 groups to evaluate analgesic activity of two compounds in the formalin pain model in mice, and each group had 10 mice. […] Before the start of experiment, the mice were allowed to adapt experimental environment for 72 h with free feeding and drinking water.
After administration, the mice were placed in a transparent, ventilated plexiglass cylinder, and 1 h later, 20 μl of 4% formalin solution was injected into the left hind plantar of mice in each group by micro-injector, and paw pain response in mice was recorded in real time by a mini-camera. The time length of licking left paw was used as an indicator of pain response, licking time in 0-10 min (phase I) and 10-60 min (phase II) was observed and recorded, and the statistical analysis was conducted. The half effective dose (EDso) of three compounds was calculated: EDso referred to the dose of the drug that decreased licking time by half as compared with the blank control group. The less the ED50 value was, the lower the effective analgesic dose of the compound was and the stronger the analgesic effect was.

| Structure (SMILES) | frequency of writhing response within 30 min ([1]; 5 mg/kg intragastric) [times] | frequency of writhing response within 30 min ([1]; 10 mg/kg intragastric) [times] | half effective dose (EDso) ([1]; acetic acid writhing, intragastric) | IC50 [2] [µM] | PWT(g) Mean ± SD ([3]; 0.5 h after administration) [g] | PWT(g) Mean ± SD ([3]; 1 h after administration) [g] | PWT(g) Mean ± SD ([3]; 2 h after administration) [g] | IC50 [4] [µM] | paw licking time ([5]; 0.1 mg/kg intraperitoneal) [s] | paw licking time ([5]; 0.5 mg/kg intraperitoneal) [s] | paw licking time ([5]; 1 mg/kg intraperitoneal) [s] | decrease of paw licking time as compared with blank vehicle ([5]; 1 mg/kg, phase II (10-60 min)) | paw licking time ([5]; 5 mg/kg intraperitoneal) [s] | paw licking time ([5]; 10 mg/kg intraperitoneal) [s] | analgesic effect (EDso) in phase II pain ([5]; phase II (10-60 min)) [mg/kg] | analgesic activity, licking time ([5]; 20 mg/kg intraperitoneal, phase I (0-10 min) and phase II (10-60 min), compared with saline group) | frequency of writhing response within 30 min ([1]; 20 mg/kg intragastric) [times] | paw licking time ([5]; 20 mg/kg intraperitoneal) [s] |
| --- | --- | --- | --- | --- | --- | --- | --- | --- | --- | --- | --- | --- | --- | --- | --- | --- | --- | --- |
| CNCC[C@H](Oc1cccc2ccoc12)c1cccs1 [IC-1, (S)-3-(Benzofuran-7-yloxy)-N-methyl-3-(thiophen-2-yl)propan-1-amine] | 20 | 17 | less than 5 mg/kg | 60 to 120 | 0.482 ± 0.199 | 0.773 ± 0.261 | 0.607 ± 0.160 | 60 to 120 | 339.35 ± 27.90 | 368.16 ± 44.46 | 171.57 ± 39.69 | more than 50% | 158.02 ± 25.18 | 35.68 ± 11.77 | 2.22 | – | – | – |
| CNCC[C@H](Oc1cccc2c1CCC2)c1cccs1 [IC-10] | – | – | – | 60 to 120 | – | – | – | 60 to 120 | – | – | – | – | – | – | – | almost completely inhibited licking paw behavior caused by pain | – | – |
| CNCC[C@H](Oc1cccc2ccccc12)c1cccs1 [Duloxetine (S configuration), Duloxetine, reference compound] | – | 27 | – | 33 | 0.416 ± 0.140 | 0.648 ± 0.155 | 0.530 ± 0.235 | 28 | – | – | 259.97 ± 64.44 | – | 230.49 ± 41.31 | 162.83 ± 36.27 | 8.00 | – | 21 | 72.27 ± 17.29 |
